Data as given in publication PMC8830069, “Metallo-β-Lactamase Inhibitor Phosphonamidate Monoesters” (ACS Omega, 2022).

Key:
NDM-1 [1] = molecular target: T1, NDM-1 (Klebsiella pneumoniae, UniProt C7C422); experiment: MBL inhibition assay, purified NDM-1, imipenem hydrolysis at 300 nm; type: biochemical; conditions: for IC50 against purified NDM-1: imipenem reporter substrate, 10 nM enzyme, 2.5% DMSO, highest inhibitor concentration 800 μM, N.I. and P. not defined
Protocol: (§1) The inhibitory activities of 1a–h and 2 against the purified NDM-1, GIM-1, and VIM-2 enzymes were evaluated (IC50 data in Table 1). The inhibitory activity was measured by monitoring nitrocefin hydrolysis for VIM-2 and GIM-1 and that of imipenem for NDM-1[19] at λ 482 and 300 nm, respectively. […] This may indicate that unlike the sulfur of captopril, that of 1a and 2 might not coordinate the zinc ions in the active site. Alternatively, this may be a result of disulfide formation under the conditions of the enzyme assay. The hydrophobic 1f–h precipitated during the enzyme assay and their inhibitory activities could therefore not be reliably measured. This is not unusual as the binding cleft of MBL inhibitors is hydrophobic, and accordingly, their inhibitors typically have poor aqueous solubility.[20] The inhibitors may be solubilized by careful dilution of dimethylsulfoxide (DMSO) stock solutions; however, this was not successful for compounds 1f–h.
(§2) The inhibitory activity (IC50) of 1a–h was studied against the MBL enzymes NDM-1, GIM-1, and VIM-2. The buffer used for the studies contained 50 mM HEPES at pH 7.2, 10 μM ZnSO4, 2.5% DMSO, and 0.4 mg/mL bovine serum albumin, used as a prevention of protein unfolding and loss of activity. The enzyme concentration of NDM-1 was 10 nM, of GIM-1 1 nM, and of VIM-2 100 pM. The inhibitors were dissolved in 100% DMSO, and a twofold dilution series was made with a final 2.5% DMSO in the assay. The highest inhibitor concentration was 800 μM. The reporter substrate for VIM-2 and GIM-1 was nitrocefin, while for NDM-1 imipenem, and their absorbance (concentration) was followed at the wavelengths 482 and 300 nm, respectively. L-Captopril and EDTA-Na were used as positive and water and DMSO as negative controls. Measurements were read for 30 min at 298 K.

GIM-1 = GIM-1 (Pseudomonas aeruginosa, UniProt Q704V1); experiment: MBL inhibition assay, purified GIM-1, nitrocefin hydrolysis at 482 nm; type: biochemical; conditions: for IC50 against purified GIM-1: nitrocefin reporter substrate, 1 nM enzyme, 2.5% DMSO, highest inhibitor concentration 800 μM, N.I. and P. not defined
GIM-1, sequence (Q704V1 entry or part of it): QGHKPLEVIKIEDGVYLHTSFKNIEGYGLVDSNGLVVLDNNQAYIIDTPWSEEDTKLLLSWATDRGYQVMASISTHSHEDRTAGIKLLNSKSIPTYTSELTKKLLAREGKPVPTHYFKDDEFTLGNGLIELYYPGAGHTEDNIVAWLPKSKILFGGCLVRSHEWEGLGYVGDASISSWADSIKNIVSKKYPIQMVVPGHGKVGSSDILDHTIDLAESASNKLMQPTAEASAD
Protocol: as §1, §2

VIM-2 = VIM-2 (Escherichia coli, UniProt Q5U7L7); experiment: MBL inhibition assay, purified VIM-2, nitrocefin hydrolysis at 482 nm; type: biochemical; conditions: for IC50 against purified VIM-2: nitrocefin reporter substrate, 100 pM enzyme, 2.5% DMSO, highest inhibitor concentration 800 μM, N.I. and P. not defined
Protocol: as §1, §2

in vitro = type: cell-based; conditions: human; cell viability after 24 hours incubation, at least two independent experiments; read-out: Cytotoxicity IC50 in HeLa cells
Protocol: The cytotoxicity of phosphonamidate monoesters was evaluated against HeLa cells (ATCC-CCL-2), which were maintained in Dulbecco’s modified Eagle medium (Thermo Fisher Scientific) supplemented with 10% (v/v) fetal bovine serum (Thermo Fisher Scientific), penicillin (100 units/mL), and streptomycin (100 μg/mL, both from Sigma) at 37 °C, 5% CO2. Cells were seeded in 96-well plates (Corning, Merck) at 20 × 10^3 cells/well and incubated for 24 h (37 °C, 5% CO2). Stock solutions of the compounds were prepared at 150 mM in DMSO (Sigma), and the cells were exposed to a serial dilution and incubated for 24 h. Subsequently, the cells were washed twice with culture medium, and the PrestoBlue reagent (Thermo Fischer Scientific) was directly added to the cells for cell viability determination (1:10 dilution in culture medium). Following recommended incubation times (manufacturer’s instructions), fluorescence was measured using a Spark plate reader (Tecan, Austria) at Ex/Em 560/590 nm and corrected for background fluorescence by including control wells containing only cell culture media (no cells). Data analysis was performed using GraphPad Prism 9.0.0 (GraphPad Software, USA). At least two independent experiments were performed.
Figure S1. Cytotoxicity dose-response curves of phosphonamidate monoesters as determined in HeLa cells. The cells were treated with the compounds at the indicated concentrations, and cell viability was measured after 24 hours incubation. The following IC50 values wer e determined to be (A) 69. 2 µM (SD = 1.0) for KAT -A-109-H2, (B) 201.4 µM (SD = 4.4) for KAT -A-102-H1 and (C) 90.7 µM (SD = 1.0) for KAT -A-118-H1. All remaining compounds (D - H) had IC50 values above 500 µM. Data is shown as mean ± SD of at least two independent experiments.
*A 1h, B 1e, C 1f, D 1a, E 1b, F 1d, G 1c. […]

[2] = Solubility in the MIC assay; type: physicochemical; conditions: Muller Hinton II broth
Protocol: (§3) The in vitro susceptibility of meropenem in combination with the different compounds was evaluated against E. coli expressing NDM-1 in a broth microdilution assay. A 96-well plate was prepared with the compounds in a twofold dilution series (final concentrations 1024–0.5 mg/L) in Muller Hinton II broth (MHB-II) in combination with 2, 4, or 8 mg/L meropenem. EDTA (100 μM) was used in combination with meropenem as control for inhibition of NDM-1. Three–five colonies of E. coli ATCC 25922 NDM-1 were suspended in 0.90% saline solution and adjusted to the 0.5 McFarland turbidity standard. The bacterial suspension was diluted in MHB-II and adjusted to a final inoculum of 5 × 10^5 CFU/mL.
Table S2. Susceptibility assay with E. coli ATCC 25922 NDM-1
Compound Minimum inhibitory concentration (mg/L)
Meropenem:compound ratio Meropenem

[3] = Solubility / aggregation in NMR buffer; type: physicochemical; conditions: 20 mM K3PO4 aqueous buffer solution at pH 7; aggregation was observed
Protocol: As binding-induced protein NMR chemical shift changes reveal the alteration of the local environment in the vicinity of the monitored nuclei, these are commonly acquired for identification of binding clefts. We monitored the weighted chemical shift changes, Δδ1H,15N, of uniformly ^15N-enriched backbone amide functionalities upon successive additions of the 0–2.370 mM ligand using ^1H,^15N HSQC experiments (Figure 5). Following literature examples,[31] chemical shift perturbations (CSPs) were considered to be significant (SSPs) in case the observed Δδ1H,15N was greater than the population mean plus the standard deviation (μ + 1σ). Such chemical shift changes may directly originate from the interaction or might be indirect and thus be the result of binding-induced conformational changes. Based on its activity against NDM-1 (Table 1) and solubility, 1d was selected for detailed analysis (Figure S2, Supporting Information). […] In order to exclude aggregation of 1d, we also performed additional ^1H,^15N HSQC titration experiments using 5% DMSO or 5% ethanol (EtOH). Some minor chemical shift variations were observed upon the addition of the co-solvents, as expected,[34] whereas neither protein precipitation nor alteration of the overall structure of NDM-1 was detected (Figures S3 and S4, Supporting Information). The chemical shift changes of 234 backbone amides were monitored. […]

NDM-1 [4] = molecular target: T1, NDM-1; experiment: 1H,15N HSQC chemical shift titration and 15N-filtered HSQC-NOESY with 15N-labeled NDM-1; type: binding
Protocol: As binding-induced protein NMR chemical shift changes reveal the alteration of the local environment in the vicinity of the monitored nuclei, these are commonly acquired for identification of binding clefts. We monitored the weighted chemical shift changes, Δδ1H,15N, of uniformly ^15N-enriched backbone amide functionalities upon successive additions of the 0–2.370 mM ligand using ^1H,^15N HSQC experiments (Figure 5). Following literature examples,[31] chemical shift perturbations (CSPs) were considered to be significant (SSPs) in case the observed Δδ1H,15N was greater than the population mean plus the standard deviation (μ + 1σ). […] Some minor chemical shift variations were observed upon the addition of the co-solvents, as expected,[34] whereas neither protein precipitation nor alteration of the overall structure of NDM-1 was detected (Figures S3 and S4, Supporting Information). The chemical shift changes of 234 backbone amides were monitored. […]
Additional information about the binding event was obtained from 3D-^15N-filtered HSQC-NOESY (Figure S6, Supporting Information). […] Thus, in a filtered NOE experiment, only intermolecular cross-peaks are detected. […]
For the titrations, two ^15N-labeled NDM-1 (0.25 mM) batches were prepared. […] All experiments were recorded on a Bruker 600 MHz spectrometer at 310 K equipped with a 5 mm TCI cryogenic probe. […]

E. coli ATCC 25922 NDM-1 = type: cell-based; conditions: in combination with EDTA 100 μM (control for inhibition of NDM-1)
Protocol: as §3

T1 sequence (C7C422 29-270 limits assumed): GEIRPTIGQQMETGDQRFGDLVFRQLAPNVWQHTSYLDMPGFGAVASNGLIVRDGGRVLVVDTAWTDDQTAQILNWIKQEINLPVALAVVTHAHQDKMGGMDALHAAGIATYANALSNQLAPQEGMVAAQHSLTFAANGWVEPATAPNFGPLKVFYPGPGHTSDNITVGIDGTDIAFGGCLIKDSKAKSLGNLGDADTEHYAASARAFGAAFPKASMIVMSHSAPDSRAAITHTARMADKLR

Row | SMILES | IC50 against purified NDM-1 (NDM-1 [1]) | IC50 against purified GIM-1 (GIM-1) | IC50 (in vitro) [µM] | IC50 against purified VIM-2 (VIM-2) | Solubility in MIC assay [2] | other results
1 | COC(=O)[C@H](NP(=O)(CCSC(C)=O)OC)c1ccccc1 (mixture of isomers) [1c, Methyl (R)-2-(((R/S)-(2-(Acetylthio)ethyl) (methoxy)phosphoryl)amino)-2-phenylacetate] | N.I | N.I. | > 500 | – | – | IC50 (VIM-2): 500 µM
2 | CCO[P@@](=O)(N[C@@H](C(=O)OC)c1ccccc1)[C@@H](CSC(C)=O)Cc1ccccc1 (mixture of isomers) [1g, Methyl (R)-2-(((R/S)-((R/S)-1-(Acetylthio)-3-phenylpropan-2-yl) (ethoxy)phosphoryl)amino)-2-phenylacetate] | P. | P. | – | P. | could not be dissolved | –
3 | COP(=O)(CCSC(C)=O)NCc1ccccn1 (racemic) [1a, (R/S)-(2-(Methoxy((pyridin-2-ylmethyl)amino)phosphoryl)ethyl) Ethanethioate] | N.I. | – | – | N.I. | – | IC50 (GIM-1): 86 µM; IC50 at 24 h (in vitro): > 500 µM
4 | COP(=O)(CCSC(C)=O)N(C)Cc1ccccn1 (racemic) [1b, (R/S)-(2-(Methoxy(methyl(pyridin-2-ylmethyl)amino)phosphoryl)ethyl) Ethanethioate] | – | – | – | – | – | IC50 (NDM-1 [1]): 356 µM; IC50 (GIM-1): 109 µM; IC50 at 24 h (in vitro): > 500 µM
5 | COP(=O)(CCSC(C)=O)N(Cc1ccccn1)Cc1ccccn1 (racemic) [1d, (R/S)-(2-((Bis(pyridin-2-ylmethyl)amino) (methoxy)phosphoryl)ethyl) Ethanethioate] | – | N.I. | > 500 | N.I. | – | IC50 (NDM-1 [1]): 430 µM; Solubility [3]: limited solubility; Enzymatic modification of the structure by NDM-1 during the NMR studies (NDM-1 [4]): no sign for enzymatic modification; Binding to NDM-1 by chemical shift perturbation (NDM-1 [4]; 0.25 mM 15N-labeled NDM-1, up to 1:10 protein/ligand, 310 K): specific binding
6 | CCOP(=O)(NCc1ccccn1)C(CSC(C)=O)Cc1ccccc1 (racemic) [1e, S-((R/S)-2-((R/S)-(2-(Ethoxy((pyridine-2-ylmethyl)amino)phosphoryl)-3-phenylpropyl) Ethanethioate] | N.I. | – | 201 | N.I. | could not be dissolved | –
7 | CCO[P@](=O)([C@@H](CSC(C)=O)Cc1ccccc1)N(C)Cc1ccccn1 (racemic) [1f, S-((R/S)-2-((R/S)-Ethoxy(methyl(pyridin-2-ylmethyl)amino)phosphoryl)-3-phenylpropyl) Ethanethioate] | P. | P. | 90.7 | P. | could not be dissolved | –
8 | CCO[P@](=O)([C@@H](CSC(C)=O)Cc1ccccc1)N(Cc1ccccn1)Cc1ccccn1 (racemic) [1h, S-((R/S)-2-((R/S)-(Bis(pyridin-2-ylmethyl)amino)(ethoxy)phosphoryl)-3-phenylpropyl) Ethanethioate] | P. | P. | 69.2 | P. | – | –
9 | O=C(O)CN(CCN(CC(=O)O)CC(=O)O)CC(=O)O [EDTA] | – | – | – | – | – | Minimum inhibitory concentration of meropenem (E. coli ATCC 25922 NDM-1): < 2 mg/L
10 | COP(=O)(CCS)NCc1ccccn1 (stereo not drawn) [compound 2] | N.I. | N.I. | – | N.I. | – | –
